Measurements taken from patent US6753409B1, “STABLE NON-HYGROSCOPIC CRYSTALLINE FORM OF N-[N-[N-(4-(PIPERIDIN-4-YL)BUTANOYL)-N-ETHYLGLYCYL]ASPARTYL]-L-β-CYCLOHEXYL ALANINE AMIDE, INTERMEDIATES THEREOF, AND PREPARATION THEREOF AND OF ANTITHROMBOTIC AZACYCLOALKYLALKANOYL PEPTIDES AND PSEUDOPEPTIDES” (Aventis Pharmaceuticals Inc., priority 1996, dated 2004).
Read-outs that look alike come from different tables or passages of the source.

How the values were obtained:
[1] = test system: ADP-induced platelet aggregation in platelet rich plasma; assay: Inhibition of ADP-Induced ex-vivo Platelet Aggregation after oral administration; format: in vivo, mongrel dogs; conditions: dog, 5 mg/kg; for % Inhibition of ex-vivo Platelet Aggregation After Oral Administration, 1 h: 1 h after dosing; for % Inhibition of ex-vivo Platelet Aggregation After Oral Administration, 3 h: 3 h after dosing
From the text: (§1) The Platelet Aggregation Assay is based on that described in Blood 66 (4), 946-952 (1985). The Fibrinogen-Binding Assay is essentially that of Ruggeri, Z. M., et al., Proc. Nail. Acad. Sci. USA 83, 5708-5712 (1986) and Plow, E. F., et al., Proc. Natl. Acad Sci., USA 82, 8057-8061 (1985). The Inhibition of ADP-lndticed ex-vivo Platelet Aggregation assay is based on that of Zucker, “Platelet Aggregation Measured by the Photoelectric Method”, Methods in Enzymology 169, 117-133 (1989).
Control blood samples are obtained 5-10 minutes prior to administration of a test compound in mongrel dogs weighing from 10 to 20 Kg. The compound is administered intragasticly, via aqueous gavage, or orally, via gelatin capsule. Blood samples (5 ml) are then obtained at 30 minute intervals for 3 hours, and at 6, 12, and 24 hours after dosing. Each blood sample is obtained by venipuncture of the cephalic vein and is collected directly into a plastic syringe containing one part 3.8% trisodium citrate to nine parts blood.
The blood samples are centrifuged at 1000 rpm for 10 minutes to obtain platelet rich plasma (PRP). After removal of the PRP, the sample is centrifuged for an additional 10 minutes at 2000 rpm to obtain platelet poor plasma (PPP). Platelet count in the PRP is determined by using a Coulter Counter (Coulter Electronics, Hialeah, Fla.). If the concentration of platelets in the PRP is greater than 300,000 platelets/μL, then the PRP is diluted with PPP to adjust the platelet count to 300,000 platelets/μL. Aliquots of PRP (250 μL) are then placed in siliconized glass cuvettes (7.25×55 mm, Bio/Data Corp., Horsham, Pa.). Epinephrine (final concentration of 1 μM) is then added to the PRP, which is incubated for one minute at 37° C. A stimulator of platelet aggregation ADP at a final concentration of 10 μM, is then added to the PRP. Platelet aggregation is monitored spectrophotometrically utilizing a light transmission aggregometer (Bio/Data Platelet Aggregation Profiler, Model PAP-4, Bio/Data Corp., Horsham, Pa.). For the testing of a compound, the rate of change (slope) of light transmittance and the maximum light transmittance (maximum aggregation) is recorded in duplicate. Platelet aggregation data are reported as the percent decrease (mean±SEM) in slope or maximum aggregation as compared to data obtained from control PRP, which is prepared from blood samples obtained prior to administration of the test compound.

[2] = test system: fixed activated platelets; assay: Platelet Aggregation Assay (fixed-activated platelets, aggregation initiated by human fibrinogen); format: cell-based; conditions: human fibrinogen 250 μg/mL, read-out: Inhibition of Fixed Platelet Aggregation (IC50 μM)
From the text: as §1
Platelets are isolated from human platelet concentrates using the gel-filtration technique as described by Marguerie, G. A. et al., J. Biol. Chem. 254, 5357-5363 (1979) and Ruggeri, Z. M. et al., J. Clin. Invest. 72, 1-12 (1983). The platelets are suspended at a concentration of 2×10^8 cells/mL in a modified calcium-free Tyrode's buffer containing 127 mM sodium chloride, 2 mM magnesium chloride, 0.42 mM Na2HPO4, 11.9 mM NaHCO3, 2.9 mM KCl, 5.5 mM glucose, 10 mM HEPES, at a pH of 7.35 and 0.35% human serum albumin (HSA). […]
The fixed activated platelets are incubated with a selected dose of the compound to be tested for platelet aggregation inhibition for one minute andfaggregation initiated by addition of human fibrinogen to a final concentration of 250 μg/mL. […] The extent of inhibition of aggregation is expressed as the percentage of the rate of aggregation observed in the absence of inhibitor. […]

[3] = Hygroscopicity and physical stability of the material prepared according to WO95/10295 (statement); format: physicochemical
[4] = Isothermal microcalorimetry of solid state form conversion (Thermal Activity Monitor); format: physicochemical; conditions: for thermal activity (form conversion) on exposure to humidity: 80% RH (saturated KCl solution), over 30 hours; for time for conversion of hygroscopic to non-hygroscopic form: 80% RH
Description: Isothermal microcalorimetry experiments on hygroscopic and non-hygroscopic crystalline forms of N-[N-[N-(4-piperdin-4-yl)butanoyl)-N-ethylglycyl]-(L)-aspartyl]-(L)-β-cyclohexylalanine amide are performed on a Thermometric® Thermal Activity Monitor (TAM). Solid state conversions of the different chrystalline forms are studied by exposing the forms to different humidities or solvent vapors at different temperatures. The saturated salt solutions used to obtain different humidities were: KCl (80% RH), NaCl (75% RH), and NaBr (65% RH). Approximately 100 mg quantities of the forms are weighed into a TAM glass ampule and a microhygrostate containing a saturated salt solution (with excess solid) or an organic solvent is placed inside the ampule. The ampule is sealed, equilibrated to the temperature of the experiment, and lowered into the measuring position in the TAM. An identical system containing washed sea sand, in place of the form subject to testing, is placed on the reference side. Output power (μW) is measured as a function of time (FIGS. 6-8).

[5] = Moisture sorption isotherms (VTI MB300G moisture balance); format: physicochemical; conditions: 25° C.; for desorption to original weight %: decreasing RH
Description: Moisture Sorption Isotherms of hygroscopic and non-hygroscopic crystalline forms of N-[N-[N-(4-piperdin-4-yl)butanoyl)-N-ethylglycyl]-(L)-aspartyl]-(L)-β-cyclohexylalanine amide are obtained on a VTI MB300G moisture balance. The experiments are conducted either by subjecting approximately 15 mg of the subject crystalline form to increasing and decreasing steps of % RH and following the weight gain (at each equilibrium step) as a function of % RH (FIG. 9) or by holding the subject crystalline form at constant humidity and following the weight gain as a function of time.

O=C(O)C[C@H](NC(=O)CNC(=O)CCCC1CCNCC1)C(=O)N[C@@H](Cc1c[nH]c2ccccc12)C(=O)O [Compound of EPA ‘481, 4-4(piperidyl)butanoyl glycyl aspartyl tryptophan, reference compound]
% Inhibition of ex-vivo Platelet Aggregation After Oral Administration, 1 h [1]: 53% | % Inhibition of ex-vivo Platelet Aggregation After Oral Administration, 3 h [1]: <20% | IC50 [2]: 0.047 µM

CCN(CC(=O)N[C@@H](CC(=O)O)C(=O)N[C@@H](CC1CCCCC1)C(N)=O)C(=O)CCCC1CCNCC1 [Example 15]
% Inhibition of ex-vivo Platelet Aggregation After Oral Administration, 1 h [1]: 100% | % Inhibition of ex-vivo Platelet Aggregation After Oral Administration, 3 h [1]: 100% | % Inhibition of ex-vivo Platelet Aggregation After Oral Administration, 6 h ([1]; 6 h after dosing): 100% | % Inhibition of ex-vivo Platelet Aggregation After Oral Administration, 12 h ([1]; 12 h after dosing): 98% | % Inhibition of ex-vivo Platelet Aggregation After Oral Administration, 24 h ([1]; 24 h after dosing): 50% | IC50 ([2]; Platelet): 0.097 µM

CCN(CC(=O)N[C@@H](CC(=O)O)C(=O)N[C@@H](CC1CCCCC1)C(N)=O)C(=O)CCCC1CCNCC1 [N-[N-[N-(4-(piperdin-4-yl)butanoyl)-N-ethylglycyl]-(L)-aspartyl]-(L)-β-cyclohexylalanine amide]
hygroscopicity and physical stability [3]: hygroscopic and is physically unstable as it absorbs moisture

CCN(CC(=O)N[C@@H](CC(=O)O)C(=O)N[C@@H](CC1CCCCC1)C(N)=O)C(=O)CCCC1CCNCC1 [hygroscopic crystalline form]
effect of relative humidity on rate of conversion to non-hygroscopic form ([4]; 60° C., 65% RH, 75% RH, 80% RH and 100% RH): higher relative humidities produce a faster conversion | thermal activity (form conversion) on exposure to humidity ([4]; 40° C., listed as hygroscopic form): strong exothermic event takes place | time for conversion of hygroscopic to non-hygroscopic form ([4]; 40° C.): approximately 24 hours | time for conversion of hygroscopic to non-hygroscopic form ([4]; 50° C.): ~6.5 h | time for conversion of hygroscopic to non-hygroscopic form ([4]; 60° C.): ~3 h | liquification during conversion ([4]; 100% RH, 60° C.): without the liquification | thermal activity (form conversion) on exposure to methanol vapors ([4]; methanol vapors, 40° C.): no exothermic conversion event takes place | desorption to original weight % ([5]; listed as hygroscopic form): does not desorb to its original weight % | % weight gain vs. % RH (water uptake) ([5]; increasing RH, more pronounced above 60% RH): picks up more water than the non-hygroscopic form as the RH increases

CCN(CC(=O)N[C@@H](CC(=O)O)C(=O)N[C@@H](CC1CCCCC1)C(N)=O)C(=O)CCCC1CCNCC1 [non-hygroscopic form]
thermal activity (form conversion) on exposure to humidity ([4]; 40° C.): no exothermic conversion event takes place | desorption to original weight % [5]: does desorb to its original weight %
